# Test results taken from PubChem BioAssay (NCI).
#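 Tested at 5 concentrations; 48 h exposure; 96-well plates; endpoints linearly interpolated, else capped at highest concentration. TGI marks complete inhibition of growth.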
# How the values were obtained:
# Experiment in all cases: NCI anticancer screen, dose series, 48 h
# A498 renal = system: A498 renal
# ACHN renal = system: ACHN renal
# CAKI-1 renal = system: CAKI-1 renal
# CCRF-CEM leukemia = system: CCRF-CEM leukemia
# DMS 114 small cell lung = system: DMS 114 small cell lung
# DMS 273 small cell lung = system: DMS 273 small cell lung
# EKVX NSCLC = system: EKVX NSCLC
# HCT-15 colon = system: HCT-15 colon
# HL-60(TB) leukemia = system: HL-60(TB) leukemia
# HOP-18 NSCLC = system: HOP-18 NSCLC
# HOP-92 NSCLC = system: HOP-92 NSCLC
# HT29 colon = system: HT29 colon
# IGROV1 ovarian = system: IGROV1 ovarian
# K-562 leukemia = system: K-562 leukemia
# KM20L2 colon = system: KM20L2 colon
# LOX IMVI melanoma = system: LOX IMVI melanoma
# LXFL 529 NSCLC = system: LXFL 529 NSCLC
# M14 melanoma = system: M14 melanoma
# M19-MEL melanoma = system: M19-MEL melanoma
# MALME-3M melanoma = system: MALME-3M melanoma
# MOLT-4 leukemia = system: MOLT-4 leukemia
# NCI-H226 lung = system: NCI-H226 lung
# NCI-H23 lung = system: NCI-H23 lung
# NCI-H460 lung = system: NCI-H460 lung
# NCI-H522 lung = system: NCI-H522 lung
# OVCAR-3 ovarian = system: OVCAR-3 ovarian
# OVCAR-8 ovarian = system: OVCAR-8 ovarian
# RPMI-8226 leukemia = system: RPMI-8226 leukemia
# RXF-631 renal = system: RXF-631 renal
# SF-268 CNS = system: SF-268 CNS
# SF-295 CNS = system: SF-295 CNS
# SF-539 CNS = system: SF-539 CNS
# SK-MEL-2 melanoma = system: SK-MEL-2 melanoma
# SK-MEL-28 melanoma = system: SK-MEL-28 melanoma
# SK-MEL-5 melanoma = system: SK-MEL-5 melanoma
# SK-OV-3 ovarian = system: SK-OV-3 ovarian
# SN12C renal = system: SN12C renal
# SNB-19 CNS = system: SNB-19 CNS
# SNB-75 CNS = system: SNB-75 CNS
# SNB-78 CNS = system: SNB-78 CNS
# SW-620 colon = system: SW-620 colon
# TK-10 renal = system: TK-10 renal
# U251 CNS = system: U251 CNS
# UACC-62 melanoma = system: UACC-62 melanoma
# UO-31 renal = system: UO-31 renal
# XF 498 CNS = system: XF 498 CNS
# 786-0 renal = system: 786-0 renal
# A549 NSCLC = system: A549 NSCLC
# COLO 205 colon = system: COLO 205 colon
# HCC-2998 colon = system: HCC-2998 colon
# HCT-116 colon = system: HCT-116 colon
# HOP-62 NSCLC = system: HOP-62 NSCLC
# KM12 colon = system: KM12 colon
# OVCAR-4 ovarian = system: OVCAR-4 ovarian
# OVCAR-5 ovarian = system: OVCAR-5 ovarian
# RXF 393 renal = system: RXF 393 renal
# SR leukemia = system: SR leukemia
# UACC-257 melanoma = system: UACC-257 melanoma
smiles,measurement,setting,value
COc1ccc(C2SCc3nc4ccccc4n32)cc1 (stereo unspecified),TGI,A498 renal,65.8 µM
same,TGI,ACHN renal,> 100 µM
same,TGI,CAKI-1 renal,> 100 µM
same,TGI,CCRF-CEM leukemia,> 100 µM
same,TGI,DMS 114 small cell lung,8.07 µM
same,TGI,DMS 273 small cell lung,53.6 µM
same,TGI,EKVX NSCLC,> 100 µM
same,TGI,HCT-15 colon,> 100 µM
same,TGI,HL-60(TB) leukemia,5.43 µM
same,TGI,HOP-18 NSCLC,> 100 µM
same,TGI,HOP-92 NSCLC,8.75 µM
same,TGI,HT29 colon,7.02 µM
same,TGI,IGROV1 ovarian,> 100 µM
same,TGI,K-562 leukemia,> 100 µM
same,TGI,KM20L2 colon,6.25 µM
same,TGI,LOX IMVI melanoma,> 100 µM
same,TGI,LXFL 529 NSCLC,> 100 µM
same,TGI,M14 melanoma,> 100 µM
same,TGI,M19-MEL melanoma,> 100 µM
same,TGI,MALME-3M melanoma,> 100 µM
same,TGI,MOLT-4 leukemia,45.5 µM
same,TGI,NCI-H226 lung,> 100 µM
same,TGI,NCI-H23 lung,> 100 µM
same,TGI,NCI-H460 lung,> 100 µM
same,TGI,NCI-H522 lung,5.42 µM
same,TGI,OVCAR-3 ovarian,> 100 µM
same,TGI,OVCAR-8 ovarian,> 100 µM
same,TGI,RPMI-8226 leukemia,13.7 µM
same,TGI,RXF-631 renal,> 100 µM
same,TGI,SF-268 CNS,> 100 µM
same,TGI,SF-295 CNS,> 100 µM
same,TGI,SF-539 CNS,> 100 µM
same,TGI,SK-MEL-2 melanoma,> 100 µM
same,TGI,SK-MEL-28 melanoma,> 100 µM
same,TGI,SK-MEL-5 melanoma,14.9 µM
same,TGI,SK-OV-3 ovarian,> 100 µM
same,TGI,SN12C renal,> 100 µM
same,TGI,SNB-19 CNS,> 100 µM
same,TGI,SNB-75 CNS,4.54 µM
same,TGI,SNB-78 CNS,> 100 µM
same,TGI,SW-620 colon,> 100 µM
same,TGI,TK-10 renal,> 100 µM
same,TGI,U251 CNS,85.4 µM
same,TGI,UACC-62 melanoma,> 100 µM
same,TGI,UO-31 renal,66.5 µM
same,TGI,XF 498 CNS,4.13 µM
N#CSCc1nc2ccc(Cl)cc2c(-c2ccccc2)[n+]1[O-],TGI,786-0 renal,32.1 µM
same,TGI,A498 renal,> 100 µM
same,TGI,A549 NSCLC,> 100 µM
same,TGI,ACHN renal,30.5 µM
same,TGI,CAKI-1 renal,47.9 µM
same,TGI,CCRF-CEM leukemia,39.2 µM
same,TGI,COLO 205 colon,> 100 µM
same,TGI,DMS 114 small cell lung,72.5 µM
same,TGI,EKVX NSCLC,40.9 µM
same,TGI,HCC-2998 colon,29.1 µM
same,TGI,HCT-116 colon,39.7 µM
same,TGI,HCT-15 colon,32.5 µM
same,TGI,HL-60(TB) leukemia,42.9 µM
same,TGI,HOP-18 NSCLC,33.6 µM
same,TGI,HOP-62 NSCLC,> 100 µM
same,TGI,HOP-92 NSCLC,34.7 µM
same,TGI,HT29 colon,35 µM
same,TGI,K-562 leukemia,87.7 µM
same,TGI,KM12 colon,51.9 µM
same,TGI,KM20L2 colon,30.8 µM
same,TGI,LOX IMVI melanoma,31.9 µM
same,TGI,LXFL 529 NSCLC,26.8 µM
same,TGI,M14 melanoma,42.1 µM
same,TGI,M19-MEL melanoma,> 100 µM
same,TGI,MALME-3M melanoma,62.5 µM
same,TGI,MOLT-4 leukemia,41.6 µM
same,TGI,NCI-H226 lung,64.5 µM
same,TGI,NCI-H460 lung,> 100 µM
same,TGI,OVCAR-3 ovarian,44.4 µM
same,TGI,OVCAR-4 ovarian,55.2 µM
same,TGI,OVCAR-5 ovarian,39 µM
same,TGI,OVCAR-8 ovarian,38.5 µM
same,TGI,RPMI-8226 leukemia,54.4 µM
same,TGI,RXF 393 renal,26.4 µM
same,TGI,RXF-631 renal,> 100 µM
same,TGI,SF-268 CNS,61.7 µM
same,TGI,SF-295 CNS,> 100 µM
same,TGI,SK-MEL-2 melanoma,42.3 µM
same,TGI,SK-MEL-28 melanoma,27.7 µM
same,TGI,SN12C renal,39.5 µM
same,TGI,SNB-19 CNS,> 100 µM
same,TGI,SNB-75 CNS,88.2 µM
same,TGI,SNB-78 CNS,> 100 µM
same,TGI,SR leukemia,76.1 µM
same,TGI,SW-620 colon,30.2 µM
same,TGI,TK-10 renal,> 100 µM
same,TGI,U251 CNS,80.6 µM
same,TGI,UACC-257 melanoma,> 100 µM
same,TGI,UACC-62 melanoma,36.9 µM
same,TGI,UO-31 renal,32.7 µM
same,TGI,XF 498 CNS,33 µM
COc1cc2c(cc1OC)C(C#N)(Cc1ccccc1)N(C(=O)c1ccccc1)C=C2 (stereo unspecified),TGI,786-0 renal,> 100 µM
same,TGI,ACHN renal,> 100 µM
same,TGI,CCRF-CEM leukemia,> 100 µM
same,TGI,COLO 205 colon,> 100 µM
same,TGI,DMS 114 small cell lung,53.2 µM
same,TGI,DMS 273 small cell lung,> 100 µM
same,TGI,EKVX NSCLC,> 100 µM
same,TGI,HCC-2998 colon,> 100 µM
same,TGI,HCT-116 colon,> 100 µM
same,TGI,HCT-15 colon,> 100 µM
same,TGI,HL-60(TB) leukemia,> 100 µM
same,TGI,HOP-18 NSCLC,> 100 µM
same,TGI,HOP-62 NSCLC,> 100 µM
same,TGI,HOP-92 NSCLC,> 100 µM
same,TGI,HT29 colon,> 100 µM
same,TGI,IGROV1 ovarian,> 100 µM
same,TGI,K-562 leukemia,> 100 µM
same,TGI,KM12 colon,> 100 µM
same,TGI,KM20L2 colon,> 100 µM
same,TGI,LOX IMVI melanoma,> 100 µM
same,TGI,LXFL 529 NSCLC,> 100 µM
same,TGI,M14 melanoma,> 100 µM
same,TGI,M19-MEL melanoma,> 100 µM
same,TGI,MALME-3M melanoma,> 100 µM
same,TGI,MOLT-4 leukemia,> 100 µM
same,TGI,NCI-H226 lung,> 100 µM
same,TGI,NCI-H23 lung,> 100 µM
same,TGI,NCI-H460 lung,> 100 µM
same,TGI,NCI-H522 lung,> 100 µM
same,TGI,OVCAR-3 ovarian,> 100 µM
same,TGI,OVCAR-5 ovarian,> 100 µM
same,TGI,OVCAR-8 ovarian,> 100 µM
same,TGI,RPMI-8226 leukemia,> 100 µM
same,TGI,RXF 393 renal,76.1 µM
same,TGI,RXF-631 renal,> 100 µM
same,TGI,SF-268 CNS,> 100 µM
same,TGI,SF-295 CNS,> 100 µM
same,TGI,SF-539 CNS,> 100 µM
same,TGI,SK-MEL-2 melanoma,> 100 µM
same,TGI,SK-MEL-28 melanoma,> 100 µM
same,TGI,SK-MEL-5 melanoma,62.9 µM
same,TGI,SK-OV-3 ovarian,> 100 µM
same,TGI,SN12C renal,> 100 µM
same,TGI,SNB-19 CNS,> 100 µM
same,TGI,SNB-75 CNS,> 100 µM
same,TGI,SNB-78 CNS,> 100 µM
same,TGI,SR leukemia,> 100 µM
same,TGI,SW-620 colon,> 100 µM
same,TGI,TK-10 renal,> 100 µM
same,TGI,U251 CNS,> 100 µM
same,TGI,UACC-257 melanoma,> 100 µM
same,TGI,UACC-62 melanoma,> 100 µM
same,TGI,UO-31 renal,> 100 µM
same,TGI,XF 498 CNS,87 µM
